According to patent US20160158149A1, “Inhalable Pharmaceutical Compositions and the Inhaler Devices Containing Them” (priority 2013, published 2016):

How the values were obtained:
[1] = Pharmacokinetic data (AUC, Cmax) after inhalation, invention versus conventional assembly; assay type: in vivo, test persons
Method: (§1) Pharmacokinetic data of an assembly for an inhaler according to the different embodiments of the invention described above together with the different variants of the pharmaceutical composition of the invention including salmeterol xinafoate and fluticasone proprionate were determined in comparison to the pharmacokinetic data of a conventional assembly including a disk-shaped inhaler housing a mixture of salmeterol xinafoate and fluticasone proprionate. Such a disk shaped inhaler is for example described in the PCT application WO 2001/97886 A1.
(§2) In particular, the fine particle dose (FPD), which is the amount of particles with an aerodynamic diameter of between 1 to 5 μm, the area under the curve (AUC), corresponds to the integral of the plasma concentration of an administered pharmaceutical drug substance versus an interval of definite time and Cmax, which is the maximum concentration measured for a pharmaceutical in the blood of test persons after it was administrated and prior to the administration of a second dose, were determined.

[2] = Fine particle dose (FPD) of the inhaler assembly, invention versus conventional; assay type: physicochemical; settings: aerodynamic diameter 1 to 5 μm, assembly of the invention relative to conventional disk-shaped inhaler
Method: as §1, §2

| Ratio invention/conventional Point estimate AUC ([1]; human, in vivo) | Ratio invention/conventional Point estimate Cmax ([1]; human, in vivo, inhaled or intranasal) | Ratio invention/conventional FPD 1-5 μm [2] | Ratio invention/conventional Point estimate Cmax ([1]; maximum concentration in blood of test persons, assembly of the invention relative to conventional disk-shaped inhaler) | Ratio invention/conventional Point estimate AUC ([1]; plasma concentration versus time, assembly of the invention relative to conventional disk-shaped inhaler) | SMILES |
| --- | --- | --- | --- | --- | --- |
| 1.25 | 1.69 | 0.90 |  |  | OCc1cc(C(O)CNCCCCCCOCCCCc2ccccc2)ccc1O (stereo not drawn) [Salmeterol, salmeterol xinafoate] |
|  |  | 0.93 | 1.66 | 1.42 | CCC(=O)O[C@]1(C(=O)SCF)[C@H](C)C[C@H]2[C@@H]3C[C@H](F)C4=CC(=O)C=C[C@]4(C)[C@@]3(F)[C@@H](O)C[C@@]21C [Fluticasone, fluticasone proprionate] |
